What all share (type): in vivo, human
The test system of data set [1] is subjects with remission phase Type I diabetes. The data set can be described thus: Sustacal meal with intravenous GLIP infusion 1.2 pm/kg/min (Example 1). The note with it: IV GLIP 1.2 pm/kg/min for 120 min after Sustacal meal; for gastrin levels / gastrin response: FIG. 1 Panel E. The procedure:
7 subjects with remission phase Type I diabetes were studied after ingestion of a standardised meal of Sustacal (Upjohn) (delivering […]). Subjects continued their normal insulin treatment programme on the day prior to the test and, on the day of the test, omitted their morning insulin injection and arrived fasting at 8:00 am. […] Infusion was continued for 120 minutes. Blood levels of glucose, C-peptide, gastrin, glucagon and HPP were monitored by standard radioimmunoassay methods in samples taken before and at intervals during the study, up to 180 minutes. On another test day, subjects were given the Sustacal meal alone and the same analytes were similarly monitored.

The test system is the same in data set [2]. The experiment in a line: Intravenous glucose infusion with intravenous GLIP (Example 2). The note with it: IV GLIP 1.2 pm/kg/min for 60 min along with IV glucose 20 g over 60 min; FIG. 2.
For data set [3] the test system is unchanged. The data set can be described thus: Sustacal meal with infusion of 0.75 pm/kg/min GLIP (Example 3). The note with it: versus saline infusion control, FIG. 3. The procedure:
Four subjects with remission phase Type I diabetes were studied during infusion with 0.75 pm/kg/min-GLIP for 120 minutes after a Sustacal meal.
The test was conducted as described in Example 1 and blood glucose and C-peptide levels were measured. On a further test day, the subjects were studied during saline infusion after a similar Sustacal meal.

The test system of data set [4] is normal volunteers. The experiment in a line: Sustacal meal preceded by subcutaneous injection of GLIP in normal volunteers (Example 4). The note with it: 100 μg GLIP sc before Sustacal meal. From the text:
Results are shown in FIG. 4. *indicates statistically significant differences between treatments (p<0.05).

Data set [5] deals with Type I diabetic subjects. The experiment in a line: Sustacal meal preceded by subcutaneous injection of 100 μg GLIP in Type I diabetics (Example 5). The conditions noted are these: 100 μg GLIP sc prior to test meal. The source says:
Type I diabetic subjects were studied.
The results are shown in FIG. 5. *indicates statistically significant differences between treatments (p<0.05).

In data set [6] the test system is Type 1 diabetic subject. The data set can be described thus: GLIP along with insulin subcutaneously prior to Sustacal meal, post-prandial glycaemia (Example 6). The conditions noted are these: 50 μg GLIP sc along with 5 units insulin (half the usual dose) prior to Sustacal meal; one subject; FIG. 6 Panel A.
Experimental: (§1) One Type 1 diabetic subject was given GLIP along with insulin and the effects on post-prandial glycaemia observed. The subject received 5 units of insulin and 50 μg GLIP as subcutaneous injections immediately prior to ingestion of a Sustacal meal as described in Example 1. Blood levels of GLIP were monitored by a standard radioimmunoassay method.
Data set [7] can be described thus: Blood levels of GLIP by radioimmunoassay after subcutaneous injection (Example 6). The note with it: 50 μg GLIP sc with 5 units insulin, Type I diabetic subject; FIG. 6 Panel E.
Experimental: as §1

Entries after “also recorded” stand apart in the source; their conditions may differ.

On to “Glucagon-like peptide 1(7-36)amide [GLIP]”, for which, in data set [1] (FIG. 1), the “blood levels of C-peptide” value is “prevented a significant increase in blood levels of C-peptide” and the “plasma glucagon levels stimulated by the meal” value was “prevented the mean rise in plasma glucagon levels”. The “secretion of pancreatic polypeptide (PP) after the meal” value in data set [1] (FIG. 1 Panel C) is recorded as “this response was absent”. Further, the “gastrin levels / gastrin response” value in data set [1] is given as “not significantly affected”. Moreover, the “gastrin levels / gastrin response” value in data set [1] (listed as CLIP) was “normal gastrin response”. In addition, the “control of blood glucose level” value in data set [2] is “improved control of blood glucose level”. Also, the C-peptide result in data set [3] (lower dose of GLIP (0.75 pmol/kg/min) along with a meal) is given as “some increase”. For the same substance, the blood glucose result in data set [3] (lower dose of GLIP (0.75 μmol/kg/min) along with a meal) is given as “some increase; also recorded: less than in the control experiment”. Besides, in data set [4], the “increase in blood levels of C-peptide” value is “delay in increase”, the “increase in blood levels of HPP” value is recorded as “delay in increase”, the “increase in blood levels of glucose” value was “delay in increase” and the “increase in blood levels of insulin” value is reported as “delay in increase”. In addition, the “blood glucose levels compared to control” value in data set [5] (FIG. 5 Panel A) is reported as “lowering of blood glucose levels”. Also, in data set [5] (FIG. 5 Panel D), the “pancreatic polypeptide (HPP) levels” value was “delayed rise in pancreatic polypeptide (HPP) levels”. The “insulin secretion over control levels” value in data set [5] (FIG. 5 Panels B and C) is reported as “no enhancement of insulin secretion over control levels”. In addition, in data set [6], the “blood glucose after standard meal (highest level)” value is on record as no more than 8 mM. Besides, the “time to clearance from the blood” value in data set [7] is on record as “about two”.

These data come from patent publication US20080286301A1, “Treatment of diabetes” (priority 1997, published 2008).
